Assay results reported in patent US12581252B2, “Substituted pyrrolo[3,4-b]pyridines as PI3K-α inhibitors” (Relay Therapeutics, Inc., priority 2020, dated 2026).
pIC50: −log10 of the molar value.

Biological target: H1047R PIK3CA enzyme (Homo sapiens, UniProt P42336, H1047R)
Test: ADP-Glo Biochemical PIK3CA Kinase Assay

Sequence of H1047R PIK3CA enzyme (P42336 whole entry H1047R): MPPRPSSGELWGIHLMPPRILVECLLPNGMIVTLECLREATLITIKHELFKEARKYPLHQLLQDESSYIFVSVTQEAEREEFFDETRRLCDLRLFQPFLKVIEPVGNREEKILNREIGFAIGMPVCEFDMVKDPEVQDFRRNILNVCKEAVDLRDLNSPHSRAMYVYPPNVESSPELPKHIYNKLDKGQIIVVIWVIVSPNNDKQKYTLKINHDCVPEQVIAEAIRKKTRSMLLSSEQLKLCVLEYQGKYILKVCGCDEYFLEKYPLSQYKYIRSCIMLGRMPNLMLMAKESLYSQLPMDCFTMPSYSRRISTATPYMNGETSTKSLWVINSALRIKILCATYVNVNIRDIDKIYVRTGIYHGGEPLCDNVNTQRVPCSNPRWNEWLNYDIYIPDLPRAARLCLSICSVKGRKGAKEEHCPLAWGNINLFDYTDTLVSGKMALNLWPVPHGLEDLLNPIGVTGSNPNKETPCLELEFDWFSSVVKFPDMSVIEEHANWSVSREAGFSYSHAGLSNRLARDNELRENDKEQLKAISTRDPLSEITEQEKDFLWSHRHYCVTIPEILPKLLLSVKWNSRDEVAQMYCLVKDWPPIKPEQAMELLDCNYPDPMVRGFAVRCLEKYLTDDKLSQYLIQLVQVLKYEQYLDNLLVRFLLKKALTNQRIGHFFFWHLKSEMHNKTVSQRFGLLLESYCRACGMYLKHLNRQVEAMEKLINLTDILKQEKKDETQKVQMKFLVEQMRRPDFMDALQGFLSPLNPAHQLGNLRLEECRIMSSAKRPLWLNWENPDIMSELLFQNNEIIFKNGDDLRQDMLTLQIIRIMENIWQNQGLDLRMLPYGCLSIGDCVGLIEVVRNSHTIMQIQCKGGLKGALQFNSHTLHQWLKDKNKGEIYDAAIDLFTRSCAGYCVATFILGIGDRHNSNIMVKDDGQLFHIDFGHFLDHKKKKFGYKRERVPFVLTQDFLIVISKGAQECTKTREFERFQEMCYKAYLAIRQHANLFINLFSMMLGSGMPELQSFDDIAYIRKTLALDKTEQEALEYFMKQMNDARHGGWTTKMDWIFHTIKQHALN
Sequence of H1047R PIK3CA enzyme (P27986 whole entry partner): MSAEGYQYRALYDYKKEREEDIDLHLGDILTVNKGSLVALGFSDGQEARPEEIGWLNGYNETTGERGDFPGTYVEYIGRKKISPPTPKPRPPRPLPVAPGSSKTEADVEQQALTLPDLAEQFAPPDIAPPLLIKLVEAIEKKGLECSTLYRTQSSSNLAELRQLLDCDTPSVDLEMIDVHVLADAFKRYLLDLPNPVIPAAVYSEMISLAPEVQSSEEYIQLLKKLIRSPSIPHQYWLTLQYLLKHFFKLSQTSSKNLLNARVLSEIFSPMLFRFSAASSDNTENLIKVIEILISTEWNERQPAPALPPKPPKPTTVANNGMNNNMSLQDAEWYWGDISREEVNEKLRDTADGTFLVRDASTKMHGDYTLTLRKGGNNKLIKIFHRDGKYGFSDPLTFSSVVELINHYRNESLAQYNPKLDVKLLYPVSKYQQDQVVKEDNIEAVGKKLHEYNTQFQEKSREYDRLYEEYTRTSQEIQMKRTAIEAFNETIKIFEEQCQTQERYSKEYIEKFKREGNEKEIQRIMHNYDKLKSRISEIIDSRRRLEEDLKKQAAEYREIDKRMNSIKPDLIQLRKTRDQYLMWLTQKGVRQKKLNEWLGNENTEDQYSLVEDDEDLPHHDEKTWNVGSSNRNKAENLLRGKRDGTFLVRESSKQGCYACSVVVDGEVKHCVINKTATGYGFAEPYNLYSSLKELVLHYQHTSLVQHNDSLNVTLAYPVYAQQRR

Structure (SMILES) | pIC50
O=C1N[C@@H](c2ccccc2Cl)c2c(NC(=O)N3C[C@](O)(C(F)(F)F)c4cc(F)ccc43)cccc21 (single isomer, unassigned) [Compound I-2686] | 4.00 to 5.00
O=C1N[C@H](c2ccccc2Cl)c2c(NC(=O)N3C[C@](O)(C(F)(F)F)c4cc(F)ccc43)cccc21 (single isomer, unassigned) [Compound I-2687] | 5.00 to 6.00
CN(C)c1cc(NC(=O)N2C[C@@](O)(C(F)(F)F)c3cc(F)ccc32)c2c(n1)C(=O)N[C@H]2c1cc(F)ccc1Cl (single isomer, unassigned) [Compound I-2691] | 5.00 to 6.00
CN(C)c1cc(NC(=O)N2C[C@](O)(C(F)(F)F)c3cc(F)ccc32)c2c(n1)C(=O)N[C@@H]2c1cc(F)ccc1Cl (single isomer, unassigned) [Compound I-2692] | 4.00 to 5.00
CN(C)c1cc(NC(=O)N2C[C@@](O)(C(F)(F)F)c3cc(F)ccc32)c2c(n1)C(=O)N[C@@H]2c1cc(F)ccc1Cl (single isomer, unassigned) [Compound I-2693] | 4.00 to 5.00
NCc1cc(NC(=O)N2C[C@](O)(C(F)F)c3cc(F)ccc32)c2c(c1)C(=O)N[C@@H]2c1cc(F)ccc1Cl (single isomer, unassigned) [Compound I-2695] | 5.00 to 6.00
NCc1cc(NC(=O)N2C[C@@](O)(C(F)F)c3cc(F)ccc32)c2c(c1)C(=O)N[C@H]2c1cc(F)ccc1Cl (single isomer, unassigned) [Compound I-2696] | 5.00 to 6.00
NCc1cc(NC(=O)N2C[C@](O)(C(F)F)c3cc(F)ccc32)c2c(c1)C(=O)N[C@H]2c1cc(F)ccc1Cl (single isomer, unassigned) [Compound I-2697] | 5.00 to 6.00
O=C1N[C@H](c2cc(F)ccc2Cl)c2c(NC(=O)N3C[C@](O)(C(F)(F)F)c4cc(F)ccc43)ccnc21 (single isomer, unassigned) [Compound I-2699] | 5.00 to 6.00
O=C1N[C@@H](c2cc(F)ccc2Cl)c2c(NC(=O)N3C[C@@](O)(C(F)(F)F)c4cc(F)ccc43)ccnc21 (single isomer, unassigned) [Compound I-2700] | 5.00 to 6.00
O=C1N[C@@H](c2cc(F)ccc2Cl)c2c(NC(=O)N3C[C@](O)(C(F)(F)F)c4cc(F)ccc43)ccnc21 (single isomer, unassigned) [Compound I-2701] | 5.00 to 6.00
O=C1N[C@H](c2cc(F)ccc2Cl)c2c(NC(=O)N3C[C@](O)(C(F)(F)F)c4cc(F)ccc43)cc(Cl)nc21 (single isomer, unassigned) [Compound I-2702] | 5.00 to 6.00
O=C1N[C@@H](c2cc(F)ccc2Cl)c2c(NC(=O)N3C[C@@](O)(C(F)(F)F)c4cc(F)ccc43)cc(Cl)nc21 (single isomer, unassigned) [Compound I-2705] | 5.00 to 6.00
O=C(Nc1cc(-c2ccncc2F)cc2c1[C@H](c1cc(F)ccc1Cl)NC2=O)c1cc(F)cc(C(F)(F)F)c1 (stereo in doubt) [Compound I-987] | 5.00 to 6.00
O=C1NCc2c(NC(=O)N3CCCC[C@H]3Cc3ccccc3)cccc21 (stereo in doubt) [Compound I-988] | 4.00 to 5.00
O=C1NCc2c(NC(=O)N3CCCC[C@@H]3Cc3ccccc3)cccc21 (stereo in doubt) [Compound I-989] | 4.00 to 5.00
Cn1ccc(-c2cc(NC(=O)c3cc(F)cc(C(F)(F)F)c3)c3c(c2)C(=O)N[C@H]3c2cc(F)ccc2Cl)cc1=O (stereo in doubt) [Compound I-1001] | 5.00 to 6.00
Nc1ncc(-c2cc(NC(=O)c3cc(F)cc(C(F)(F)F)c3)c3c(c2)C(=O)N[C@H]3c2cc(F)ccc2Cl)cn1 (stereo in doubt) [Compound I-1004] | 5.00 to 6.00
COc1cccc(-c2cc(NC(=O)c3cc(F)cc(C(F)(F)F)c3)c3c(c2)C(=O)N[C@@H]3c2cc(F)ccc2Cl)n1 (stereo in doubt) [Compound I-1007] | 5.00 to 6.00

Structure (SMILES) | pIC50
O=C(Nc1cc(-c2cccnc2)cc2c1[C@H](c1cc(F)ccc1Cl)NC2=O)c1cc(F)cc(C(F)(F)F)c1 (stereo in doubt) [Compound I-1008] | 5.00 to 6.00
Cc1cnccc1-c1cc(NC(=O)c2cc(F)cc(C(F)(F)F)c2)c2c(c1)C(=O)N[C@@H]2c1cc(F)ccc1Cl (stereo in doubt) [Compound I-1011] | 5.00 to 6.00
O=C(Nc1cc(-c2ccc3ncnn3c2)cc2c1[C@@H](c1cc(F)ccc1C(F)F)NC2=O)c1cc(F)cc(C(F)(F)F)c1 (stereo in doubt) [Compound I-1055] | 5.00 to 6.00
O=C(Nc1cc(-c2ccc3ncnn3c2)cc2c1[C@@H](c1cc(F)cc(F)c1Cl)NC2=O)c1cc(F)cc(C(F)(F)F)c1 (stereo in doubt) [Compound I-1063] | 4.00 to 5.00
O=C(Nc1cc(-c2ccc3ncnn3c2)cc2c1[C@H](c1cc(F)ccc1Cl)NC2=O)c1ccc(F)c(OC(F)(F)F)c1 (stereo in doubt) [Compound I-1107] | 6.30 to 7.00
O=C(Nc1cc(-c2ccc3ncnn3c2)cc2c1[C@@H](c1cc(F)ccc1Cl)NC2=O)c1ccc(F)c(OC(F)(F)F)c1 (stereo in doubt) [Compound I-1108] | 5.00 to 6.00
O=C(Nc1cc(-c2ccc3ncnn3c2)cc2c1[C@@H](c1cc(F)ccc1Cl)NC2=O)c1cccc(C(F)(F)F)c1 (stereo in doubt) [Compound I-1116] | 4.00 to 5.00
O=C(Nc1cc(-c2ccc3ncnn3c2)cc2c1[C@@H](c1cc(F)ccc1Cl)NC2=O)c1cc(F)cc(OC(F)(F)F)c1 (stereo in doubt) [Compound I-1117] | 5.00 to 6.00
O=C(Nc1cc(-c2ccc3ncnn3c2)cc2c1[C@H](c1cc(F)ccc1Cl)NC2=O)c1cccc(C(F)(F)F)c1 (stereo in doubt) [Compound I-1121] | ≥ 7.00
O=C(Nc1cc(-n2ccnc2)cc2c1[C@@H](c1cc(F)ccc1Cl)NC2=O)c1cc(F)cc(C(F)(F)F)c1 (stereo in doubt) [Compound I-1125] | 6.30 to 7.00
O=C(Nc1cc(-n2ccnc2)cc2c1[C@H](c1cc(F)ccc1Cl)NC2=O)c1cc(F)cc(C(F)(F)F)c1 (stereo in doubt) [Compound I-1126] | ≥ 7.00
O=C(Nc1cc(-c2ccc3ncnn3c2)cc2c1[C@H](c1cc(F)ccc1Cl)NC2=O)c1cc(F)cc(Cl)c1 (stereo in doubt) [Compound I-1165] | ≥ 7.00
O=C(Nc1cc(-c2ccc3ncnn3c2)cc2c1[C@@H](c1cc(F)ccc1Cl)NC2=O)c1cc(F)cc(Cl)c1 (stereo in doubt) [Compound I-1166] | 5.00 to 6.00
Cc1ccc(C(=O)Nc2cc(-c3ccc4ncnn4c3)cc3c2[C@H](c2cc(F)ccc2Cl)NC3=O)cc1C(F)(F)F (stereo in doubt) [Compound I-1167] | ≥ 7.00
Cc1ccc(C(=O)Nc2cc(-c3ccc4ncnn4c3)cc3c2[C@@H](c2cc(F)ccc2Cl)NC3=O)cc1C(F)(F)F (stereo in doubt) [Compound I-1168] | 4.00 to 5.00
O=C(Nc1cc(-c2ccc3ncnn3c2)cc2c1[C@H](c1cc(F)ccc1Cl)NC2=O)c1cc(F)cc(OC(F)F)c1 (stereo in doubt) [Compound I-1169] | 6.30 to 7.00
O=C(Nc1cc(-c2ccc3ncnn3c2)cc2c1[C@@H](c1cc(F)ccc1Cl)NC2=O)c1cc(F)cc(OC(F)F)c1 (stereo in doubt) [Compound I-1170] | 4.00 to 5.00
O=C(Nc1cc(-c2ccc3ncnn3c2)cc2c1[C@H](c1cc(F)ccc1Cl)NC2=O)c1cc(F)cc(C(F)F)c1 (stereo in doubt) [Compound I-1171] | 6.30 to 7.00
